± gives the standard deviation of the averaged measurements.
Tests used:
Experiment in all cases: drug sensitivity score (DSS) (DSS score); higher = more sensitive (stronger growth inhibition); extreme values may be limits of the assay
[1] = tested on: Ba/F3 P210-BCR-ABL1 RUNX1-/- (mouse)
Procedure, shortened: (§1)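 Mouse Ba/F3 cells carrying P210-BCR-ABL1, CRISPR/Cas9-edited at runx1 exon 4 or edited-control clones, were screened against a 528-compound library on pre-printed 384-well plates. Each compound ran at five concentrations spanning a 10,000-fold range, with 10,000 cells per well in RPMI with 10% FBS for 72 h at 37 °C and 5% CO2. CellTiter-Glo luminescence was scaled between vehicle and positive-control wells. A drug sensitivity score summarised each dose-response, averaged over two replicates.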

[2] = tested on: Ba/F3 P210-BCR-ABL1 RUNX1-/mut (mouse)
Procedure, shortened: as §1

[3] = tested on: Ba/F3 P210-BCR-ABL1 RUNX1wt/wt control (mouse)
Procedure, shortened: as §1

| Structure (SMILES) | drug sensitivity score [1] | drug sensitivity score [2] | drug sensitivity score [3] |
| --- | --- | --- | --- |
| O=C(/C=C\n1cnc(-c2cc(C(F)(F)F)cc(C(F)(F)F)c2)n1)NNc1cnccn1 [Selinexor] | 24 ± 1.7 | 23 ± 0.99 | 16.55 ± 0.071 |
| Cc1cc(F)c(C(=O)Nc2cccc(-c3nncn3C(C)C)n2)cc1-n1cnc(C2CC2)c1 [Selonsertib] | 0 | 0 | 0 |
| CN1CCN(C(=O)c2ccc3cc(CCNc4ncnc5ccc(C#N)cc45)ccc3c2)CC1 [Senexin B] | 0.8 | 1.1 ± 1.6 | 0.15 ± 0.21 |
| COCC[n+]1c2c(n(Cc3cnccn3)c1C)C(=O)c1ccccc1C2=O [Sepantronium bromide] | 12.9 ± 1.5 | 17.1 ± 1.1 | 6.85 ± 0.49 |
| Nc1nc2cc(-c3ccc4ncc(C(=O)N5CCOCC5)n4c3)ccc2o1 [Serabelisib] | 1.5 ± 1.4 | 2.5 ± 3.5 | 0 |
| O=C(O)c1ccc2c(c1)nc(Nc1cccc(Cl)c1)c1ccncc12 [Silmitasertib] | 6.45 ± 0.071 | 7.25 ± 2 | 4.05 ± 0.21 |
| CCC(C)(C)C(=O)O[C@H]1C[C@@H](C)C=C2C=C[C@H](C)[C@H](CC[C@@H]3C[C@@H](O)CC(=O)O3)[C@H]21 [Simvastatin] | 0.4 ± 0.42 | 0.6 ± 0.85 | 0.05 ± 0.071 |
| CO[C@H]1C[C@@H]2CC[C@@H](C)[C@@](O)(O2)C(=O)C(=O)N2CCCC[C@H]2C(=O)O[C@H]([C@H](C)C[C@@H]2CC[C@@H](O)[C@H](OC)C2)CC(=O)[C@H](C)/C=C(\C)[C@@H](O)[C@@H](OC)C(=O)[C@H](C)C[C@H](C)/C=C/C=C/C=C/1C [Sirolimus] | 7.6 ± 1.7 | 8.4 ± 3.4 | 0.5 ± 0.71 |
| COCCNCc1ccc(-c2cc3nccc(Oc4ccc(NC(=O)C5(C(=O)Nc6ccc(F)cc6)CC5)cc4F)c3s2)nc1 [Sitravatinib] | 8.95 ± 0.35 | 4.6 ± 0.71 | 0 |
| Cc1c(C(=O)Nc2ccc(N3C[C@@H](C)O[C@@H](C)C3)nc2)cccc1-c1ccc(OC(F)(F)F)cc1 [Sonidegib] | 1.3 ± 1.8 | 1.3 ± 1.8 | 0.15 ± 0.21 |
| C=CCN(/C=C1/C(=O)O[C@H](COC)[C@@]2(C)C1=C(O)C(=O)C1=C2[C@H](OC(C)=O)C[C@]2(C)C(=O)CC[C@@H]12)CC=C [Sonolisib] | 1.7 ± 1.1 | 0.7 ± 0.99 | 0 |
| C=CC(=O)Nc1cccc(Nc2nc(Nc3ccc(OCCOC)cc3)ncc2F)c1 [Spebrutinib] | 0 | 0 | 0 |
| CC(C)n1cnc2c(NCCc3ccc(O)cc3)nc(-c3csc4ccccc34)nc21 [StemRegenin 1] | 3.45 ± 2.9 | 3.05 ± 3.9 | 0.8 ± 0.28 |
| CC(C)(O)CC(=O)NCCn1ccc2ncnc(Nc3ccc(Oc4cccc(C(F)(F)F)c4)c(Cl)c3)c21 [TAK-285] | 0 | 0.5 ± 0.71 | 0 |
| CCS(=O)(=O)c1cccc(-c2cc(C(=O)NC3CCN(C)CC3)c(C)c3[nH]c4ncc(C)cc4c23)c1 [TAK-901] | 5.8 ± 0.99 | 3.55 ± 0.49 | 0 |
| Cc1cccc(-c2[nH]c(CNc3ccccc3F)nc2-c2ccc3ncnn3c2)n1 [TEW-7197] | 2.35 ± 3.3 | 0 | 0 |
| Nc1nc(N)c2nc(-c3cccc(O)c3)c(-c3cccc(O)c3)nc2n1 [TG100-115] | 3.1 ± 0.57 | 4.65 ± 0.49 | 0 |
| CC(C)Oc1ccc(-c2nn([C@@H](C)c3oc4ccc(F)cc4c(=O)c3-c3cccc(F)c3)c3ncnc(N)c23)cc1F [TGR-1202] | 3.4 ± 0.99 | 1.2 ± 1.4 | 0 |
| Cc1cc(C(C)Nc2ccccc2)c2nc(N3CCOCC3)cc(=O)n2c1 (stereo not drawn) [TGX-221] | 2.7 ± 2.4 | 2.4 ± 3.1 | 0 |
| Nc1nc(NC2CC2)cc(-c2cccc(Cl)c2Cl)n1 [TH588] | 5.45 ± 0.35 | 4.45 ± 4.7 | 3.6 ± 1.1 |
| Clc1ccccc1C(c1ccccc1)(c1ccccc1)n1cccn1 [TRAM-34] | 0 | 0 | 0 |
| CN(C(=O)c1ccc(F)cc1C(F)(F)F)C1CCN(c2nnc(-c3ccnn3C)c3ccccc23)CC1 [Taladegib] | 0.85 ± 1.2 | 1.8 ± 2.5 | 0 |
| Cn1ncnc1[C@H]1c2n[nH]c(=O)c3cc(F)cc(c23)N[C@@H]1c1ccc(F)cc1 [Talazoparib] | 15 ± 5.5 | 16.2 ± 5 | 2.7 ± 0.14 |

| Structure (SMILES) | drug sensitivity score [1] | drug sensitivity score [2] | drug sensitivity score [3] |
| --- | --- | --- | --- |
| C[C@@H]1CN(Cc2ccc(F)cc2)[C@@H](C)CN1C(=O)c1cc2c(C(=O)C(=O)N(C)C)cn(C)c2cc1Cl [Talmapimod] | 0.25 ± 0.35 | 0.1 ± 0.14 | 0 |
| COc1cc(Nc2ncc(F)c(Nc3ccc4c(n3)NC(=O)C(C)(C)O4)n2)cc(OC)c1OC [Tamatinib] | 7.15 ± 0.78 | 4.15 ± 0.071 | 5.8 ± 0.28 |
| CC/C(=C(\c1ccccc1)c1ccc(OCCN(C)C)cc1)c1ccccc1 [Tamoxifen] | 6.2 ± 1.6 | 7.5 ± 1.3 | 3.5 ± 0.28 |
| O[C@H]1CC[C@H](Nc2ncc3nc(Nc4c(F)cc(F)cc4F)n([C@H]4CCOC4)c3n2)CC1 [Tanzisertib] | 1.55 ± 0.78 | 1 ± 1.4 | 0 |
| Cc1nc(-c2cn3c(n2)-c2ccc(-c4cnn(C(C)(C)C(N)=O)c4)cc2OCC3)n(C(C)C)n1 [Taselisib] | 4.65 ± 0.49 | 3.1 ± 4.1 | 0.4 ± 0.57 |
| COc1cccc2c1c(O)c(C(=O)N(C)c1ccc(C(F)(F)F)cc1)c(=O)n2C [Tasquinimod] | 0.75 ± 1.1 | 2.15 ± 3 | 0.5 ± 0.71 |
| CCN(c1cc(-c2ccc(CN3CCOCC3)cc2)cc(C(=O)NCc2c(C)cc(C)[nH]c2=O)c1C)C1CCOCC1 [Tazemetostat] | 0.45 ± 0.64 | 0.25 ± 0.35 | 0 |
| CNC(=O)c1cc(COc2nnc(Nc3ccc(Cl)cc3)c3ccoc23)ccn1 [Telatinib] | 0.1 ± 0.14 | 0 | 0 |
| CN1CCC(COc2cnc(-c3cccc(Cn4nc(-c5cccc(C#N)c5)ccc4=O)c3)nc2)CC1 [Tepotinib] | 2.8 ± 1.3 | 2.5 ± 3.5 | 0 |
| COc1cc2c(Nc3ccc(Cl)c(Cl)c3F)ncnc2cc1OC[C@@H]1C[C@@H]2CN(C)C[C@@H]2C1 [Tesevatinib] | 0.55 ± 0.49 | 0.9 ± 1.3 | 0 |
| O=c1sn(-c2cccc3ccccc23)c(=O)n1Cc1ccccc1 [Tideglusib] | 0 | 0 | 0 |
| Cn1cncc1[C@@](N)(c1ccc(Cl)cc1)c1ccc2c(c1)c(-c1cccc(Cl)c1)cc(=O)n2C [Tipifarnib] | 22.4 ± 2.8 | 18.5 ± 2.3 | 4.55 ± 0.071 |
| CC#CC(=O)N1CC[C@@H](n2c(=O)n(-c3ccc(Oc4ccccc4)cc3)c3c(N)ncnc32)C1 [Tirabrutinib] | 0.85 ± 0.92 | 0.65 ± 0.78 | 0 |
| O=C1NC(=O)[C@@H](c2cn3c4c(cccc24)CCC3)[C@@H]1c1c[nH]c2ccccc12 [Tivantinib] | 5.6 ± 0.57 | 5.45 ± 0.071 | 3.25 ± 0.071 |
| COc1cc2nccc(Oc3ccc(NC(=O)Nc4cc(C)on4)c(Cl)c3)c2cc1OC [Tivozanib] | 22.8 ± 0.92 | 18.1 ± 0.92 | 14.45 ± 0.071 |
| CN(C)CCOc1ccc(/C(=C(/CCCl)c2ccccc2)c2ccccc2)cc1 [Toremifene] | 5.9 ± 1.7 | 6.9 ± 2.7 | 4.85 ± 0.35 |
| CC(C)C[C@@H](C(=O)N[C@H](C(=O)OC1CCCC1)c1ccccc1)[C@H](O)C(=O)NO [Tosedostat] | 11.4 ± 1.7 | 11.3 ± 4.3 | 1.85 ± 0.49 |
| Cc1cc(Nc2cc(N3CCN(C)CC3)nc(Sc3ccc(NC(=O)C4CC4)cc3)n2)n[nH]1 [Tozasertib] | 17.7 ± 0.14 | 12.3 ± 0.85 | 7.95 ± 0.071 |
| NC(=S)N/N=C/c1ncccc1N [Triapine] | 5.6 ± 0.28 | 5.05 ± 0.071 | 4.65 ± 0.071 |
| O=c1[nH]c(=O)n([C@H]2C[C@H](O)[C@@H](CO)O2)cc1C(F)(F)F [Trifluridine] | 15.5 ± 0.14 | 14.6 ± 0.85 | 8.45 ± 0.21 |
| O=C(CCCCCCC(=O)Nc1ccc([C@H]2O[C@@H](CSc3nc(-c4ccccc4)c(-c4ccccc4)o3)C[C@@H](c3ccc(CO)cc3)O2)cc1)NO [Tubacin] | 6.45 ± 1.2 | 6.2 ± 0.28 | 4.35 ± 0.78 |
| CN1CCc2c(c3ccccc3n2Cc2ccc(C(=O)NO)cc2)C1 [Tubastatin A] | 4.05 ± 0.64 | 3.6 | 0 |
| Cc1cc(Nc2ncnc3ccc(NC4=NC(C)(C)CO4)cc23)ccc1Oc1ccn2ncnc2c1 [Tucatinib] | 0.4 ± 0.57 | 0 | 0 |

Source: the supplement of paper PMC8024199
